# Laboratory results published in patent publication US9512113B2, “N-(tetrazol-5-yl)- and N-(triazol-5-yl)arylcarboxylic thioamides and use thereof as herbicides” (BAYER CROPSCIENCE AG, priority 2012, dated 2016).
# Key:
# Type in all cases: in vivo
# [1] = system: Triticum aestivum (wheat); test: Post-emergence action, damage to crop plants
# Procedure: (§1) Seeds of monocotyledonous and dicotyledonous weed and crop plants are placed in sandy loam in wood-fiber pots, covered with soil and cultivated in a greenhouse under good growth conditions. 2 to 3 weeks after sowing, the test plants are treated at the one-leaf stage. The compounds according to the invention, formulated in the form of wettable powders (WP) or as emulsion concentrates (EC), are then sprayed as aqueous suspension or emulsion at a water application rate of 600 to 800 I/ha (converted) with the addition of 0.2% of wetting agent onto the green parts of the plants. After the test plants have been left to stand in the greenhouse under optimal growth conditions for about 3 weeks, the action of the preparations is assessed visually in comparison to untreated controls (herbicidal action in percent (%): 100% action=the plants have died, 0% action=like control plants). Here, for example, the compounds Nos 1-8 and 1-83, at an application rate of 80 g/ha, show an activity of at least 80% against Alopecurus myosuroides, Avena fatua, Cyperus serotinus, Echinochloa crus galli, Lolium multiflorum, Setaria viridis, Abutilon theophrasti, Amaranthus retroflexus, Matricaria inodora, Pharbitis purpureum, Polygonum convolvulus, Stellaria media, Viola tricolor and Veronica persica.
# (§2) These comparative experiments were carried out under the conditions mentioned above by the pre-emergence method and the post-emergence method. In the tables below, the top line in each case states the compound according to the invention, and the bottom line states the compound from WO 2012/028579 A1.
# Polygonum convolvulus [2] = test: Post-emergence herbicidal action against harmful plants
# Procedure: as §1, §2
# Zea mays (corn) [3] = test: Post-emergence action, damage to crop plants; details: 80 g/ha
# Procedure: as §1, §2
# Alopecurus myosuroides = test: Post-emergence herbicidal action against harmful plants; details: Table I, 80 g/ha
# Procedure: as §1, §2
# Lolium multiflorum = test: as above; details: 80 g/ha
# Procedure: as §1, §2
# Oryza sativa (rice) [4] = test: Post-emergence action, damage to crop plants; details: Table G, 5 g/ha
# Procedure: as §1, §2
# Pharbitis purpureum [5] = test: Post-emergence herbicidal action against harmful plants; details: Table G, 5 g/ha
# Procedure: as §1, §2
# Abutilon theophrasti = test: Pre-emergence herbicidal action against harmful plants
# From the text: (§3) Seeds of monocotyledonous and dicotyledonous weed plants and crop plants are placed in wood-fiber pots in sandy loam and covered with soil. The compounds according to the invention, formulated in the form of wettable powders (WP) or as emulsion concentrates (EC), are then applied as aqueous suspension or emulsion at a water application rate of 600 to 800 I/ha (converted) with the addition of 0.2% of wetting agent to the surface of the covering soil. After the treatment, the pots are placed in a greenhouse and kept under good growth conditions for the test plants. The damage to the test plants is assessed visually after a test period of 3 weeks by comparison with untreated controls (herbicidal activity in percent (%): 100% action=the plants have died, 0% action=like control plants). Here, for example, the compounds Nos 1-8, 1-26 and 4-7, at an application rate of 80 g/ha, show an activity of at least 80% against Alopecurus myosuroides, Avena fatua, Cyperus serotinus, Echinochloa crus galli, Lolium multiflorum, Setaria viridis, Abutilon theophrasti, Amaranthus retroflexus, Matricaria inodora, Pharbitis purpureum, Stellaria media, Viola tricolor and Veronica persica.
# as §2
# Pharbitis purpureum [6] = test: as above
# From the text: as §3, §2
# [7] = system: Brassica napus (oilseed rape); test: Pre-emergence action, damage to crop plants
# From the text: as §3, §2
# Amaranthus retroflexus [8] = test: Post-emergence herbicidal action against harmful plants; details: Table H, 5 g/ha
# Procedure: as §1, §2
# Echinochloa crus galli [9] = test: as above; details: Table H, 5 g/ha
# Procedure: as §1, §2
# Setaria viridis = test: as above; details: Table H, 5 g/ha
# Procedure: as §1, §2
# Avena fatua [10] = test: as above; details: Table K, 80 g/ha
# Procedure: as §1, §2
# Amaranthus retroflexus [11] = test: Pre-emergence herbicidal action against harmful plants; details: Table E, 320 g/ha
# From the text: as §3, §2
# Polygonum convolvulus [12] = test: as above
# From the text: as §3, §2
# Avena fatua [13] = test: as above; details: Table C, 320 g/ha
# From the text: as §3, §2
# Zea mays (corn) [14] = test: Pre-emergence action, damage to crop plants; details: Table C, 320 g/ha
# From the text: as §3, §2
# [15] = system: Triticum aestivum (wheat); test: Pre-emergence action, damage to crop plants; details: Table D, 320 g/ha
# From the text: as §3, §2
# Echinochloa crus galli [16] = test: Pre-emergence herbicidal action against harmful plants; details: 20 g/ha
# From the text: as §3, §2
# Cyperus serotinus = test: as above; details: Table B, 20 g/ha
# From the text: as §3, §2
# Oryza sativa (rice) [17] = test: Pre-emergence action, damage to crop plants; details: 20 g/ha
# From the text: as §3, §2
smiles,measurement,setting,value
Cn1nnnc1NC(=O)c1ccc(C(F)(F)F)cc1S(C)(=O)=O,Damage to crop plants TRZAS,"[1]; Table J, 80 g/ha",60%
same,Herbicidal efficacy against POLCO,"Polygonum convolvulus [2]; Table J, 80 g/ha",70%
CCCn1nnnc1NC(=O)c1ccc(C(F)(F)F)c(S(C)(=O)=O)c1C [drawing 25],Damage to crop plants ZEAMX,Zea mays (corn) [3]; Table I,20%
same,Herbicidal efficacy against ALOMY,Alopecurus myosuroides,30%
same,Herbicidal efficacy against LOLMU,Lolium multiflorum; Table I,0%
CCOc1c(S(C)(=O)=O)ccc(C(=O)Nc2nnnn2C)c1Cl,Damage to crop plants ORYSA,Oryza sativa (rice) [4],40%
same,Damage to crop plants TRZAS,"[1]; Table G, 5 g/ha",30%
same,Herbicidal efficacy against POLCO,"Polygonum convolvulus [2]; Table G, 5 g/ha",40%
same,Herbicidal efficacy against PHBPU,Pharbitis purpureum [5],20%
Cn1nnnc1NC(=S)c1ccc(C(F)(F)F)cc1S(C)(=O)=O,Damage to crop plants TRZAS,"[1]; Table J, 80 g/ha",20%
same,Herbicidal efficacy against POLCO,"Polygonum convolvulus [2]; Table J, 80 g/ha",90%
Cc1c(C(=O)Nc2nnnn2C)ccc(S(C)(=O)=O)c1Cl [drawing 9],Herbicidal efficacy against ABUTH,"Abutilon theophrasti; Table A, 20 g/ha",70%
same,Herbicidal efficacy against PHBPU,"Pharbitis purpureum [6]; Table A, 20 g/ha",0%
same,Damage to crop plants BRSNW,"[7]; Table A, 20 g/ha",20%
Cc1c(C(=S)Nc2nnnn2C)ccc(S(C)(=O)=O)c1Cl [drawing 22],Herbicidal efficacy against AMARE,Amaranthus retroflexus [8],40%
same,Herbicidal efficacy against ECHCG,Echinochloa crus galli [9],70%
same,Herbicidal efficacy against SETVI,Setaria viridis,40%
Cc1c(C(=S)Nc2nnnn2C)ccc(C(F)(F)F)c1S(C)(=O)=O [drawing 28],Damage to crop plants ZEAMX,Zea mays (corn) [3]; Table K,50%
same,Herbicidal efficacy against AVEFA,Avena fatua [10],90%
same,Herbicidal efficacy against LOLMU,Lolium multiflorum; Table K,90%
Cc1c(C(=S)Nc2nnnn2C)ccc(S(C)(=O)=O)c1Cl [drawing 8],Herbicidal efficacy against ABUTH,"Abutilon theophrasti; Table A, 20 g/ha",90%
same,Herbicidal efficacy against PHBPU,"Pharbitis purpureum [6]; Table A, 20 g/ha",20%
same,Damage to crop plants BRSNW,"[7]; Table A, 20 g/ha",0%
Cc1c(C(=O)Nc2ncnn2C)ccc(S(C)(=O)=O)c1S(C)(=O)=O,Herbicidal efficacy against AMARE,Amaranthus retroflexus [11],40%
same,Herbicidal efficacy against ABUTH,"Abutilon theophrasti; Table E, 320 g/ha",0%
same,Damage to crop plants BRSNW,"[7]; Table E, 320 g/ha",20%
CCCn1nnnc1NC(=S)c1ccc(C(F)(F)F)c(S(C)(=O)=O)c1C [drawing 24],Damage to crop plants ZEAMX,Zea mays (corn) [3]; Table I,0%
same,Herbicidal efficacy against ALOMY,Alopecurus myosuroides,80%
same,Herbicidal efficacy against LOLMU,Lolium multiflorum; Table I,20%
Cn1nnnc1NC(=O)c1ccc(S(C)(=O)=O)c(COCC(F)(F)F)c1Cl,Herbicidal efficacy against POLCO,"Polygonum convolvulus [12]; Table C, 320 g/ha",50%
same,Herbicidal efficacy against AVEFA,Avena fatua [13],70%
same,Damage to crop plants ZEAMX,Zea mays (corn) [14],20%
Cc1nc(C(F)(F)F)ccc1C(=O)Nc1nnnn1C,Herbicidal efficacy against POLCO,"Polygonum convolvulus [12]; Table D, 320 g/ha",60%
same,Herbicidal efficacy against PHBPU,"Pharbitis purpureum [6]; Table D, 320 g/ha",60%
same,Damage to crop plants TRZAS,[15],20%
CCCn1nnnc1NC(=S)c1ccc(C(F)(F)F)c(S(C)(=O)=O)c1C [drawing 10],Herbicidal efficacy against ECHCG,Echinochloa crus galli [16]; Table B,20%
same,Herbicidal efficacy against CYPES,Cyperus serotinus,100%
same,Damage to crop plants ORYSA,Oryza sativa (rice) [17]; Table B,0%
Cc1c(C(=S)Nc2nnnn2C)ccc(C(F)(F)F)c1S(C)(=O)=O [drawing 18],Herbicidal efficacy against POLCO,"Polygonum convolvulus [12]; Table F, 20 g/ha",60%
same,Herbicidal efficacy against ECHCG,Echinochloa crus galli [16]; Table F,100%
same,Damage to crop plants ORYSA,Oryza sativa (rice) [17]; Table F,20%
same,Damage to crop plants BRSNW,"[7]; Table F, 20 g/ha",0%
Cc1c(C(=S)Nc2ncnn2C)ccc(S(C)(=O)=O)c1S(C)(=O)=O,Herbicidal efficacy against AMARE,Amaranthus retroflexus [11],90%
same,Herbicidal efficacy against ABUTH,"Abutilon theophrasti; Table E, 320 g/ha",80%
same,Damage to crop plants BRSNW,"[7]; Table E, 320 g/ha",0%
Cc1c(C(=O)Nc2nnnn2C)ccc(S(C)(=O)=O)c1Cl [drawing 23],Herbicidal efficacy against AMARE,Amaranthus retroflexus [8],20%
same,Herbicidal efficacy against ECHCG,Echinochloa crus galli [9],10%
same,Herbicidal efficacy against SETVI,Setaria viridis,0%
Cc1nc(C(F)(F)F)ccc1C(=S)Nc1nnnn1C,Herbicidal efficacy against POLCO,"Polygonum convolvulus [12]; Table D, 320 g/ha",80%
same,Herbicidal efficacy against PHBPU,"Pharbitis purpureum [6]; Table D, 320 g/ha",80%
same,Damage to crop plants TRZAS,[15],0%
Cn1nnnc1NC(=S)c1ccc(S(C)(=O)=O)c(COCC(F)(F)F)c1Cl,Herbicidal efficacy against POLCO,"Polygonum convolvulus [12]; Table C, 320 g/ha",90%
same,Herbicidal efficacy against AVEFA,Avena fatua [13],90%
same,Damage to crop plants ZEAMX,Zea mays (corn) [14],0%
CCOc1c(S(C)(=O)=O)ccc(C(=S)Nc2nnnn2C)c1Cl,Damage to crop plants ORYSA,Oryza sativa (rice) [4],10%
same,Damage to crop plants TRZAS,"[1]; Table G, 5 g/ha",0%
same,Herbicidal efficacy against POLCO,"Polygonum convolvulus [2]; Table G, 5 g/ha",60%
same,Herbicidal efficacy against PHBPU,Pharbitis purpureum [5],80%
CCCn1nnnc1NC(=O)c1ccc(C(F)(F)F)c(S(C)(=O)=O)c1C [drawing 11],Herbicidal efficacy against ECHCG,Echinochloa crus galli [16]; Table B,0%
same,Herbicidal efficacy against CYPES,Cyperus serotinus,0%
same,Damage to crop plants ORYSA,Oryza sativa (rice) [17]; Table B,50%
Cc1c(C(=O)Nc2nnnn2C)ccc(C(F)(F)F)c1S(C)(=O)=O [drawing 29],Damage to crop plants ZEAMX,Zea mays (corn) [3]; Table K,70%
same,Herbicidal efficacy against AVEFA,Avena fatua [10],70%
same,Herbicidal efficacy against LOLMU,Lolium multiflorum; Table K,70%
Cc1c(C(=O)Nc2nnnn2C)ccc(C(F)(F)F)c1S(C)(=O)=O [drawing 19],Herbicidal efficacy against POLCO,"Polygonum convolvulus [12]; Table F, 20 g/ha",0%
same,Herbicidal efficacy against ECHCG,Echinochloa crus galli [16]; Table F,20%
same,Damage to crop plants ORYSA,Oryza sativa (rice) [17]; Table F,50%
same,Damage to crop plants BRSNW,"[7]; Table F, 20 g/ha",30%
